From patent US11160826B1, “Cholesterol lowering drugs for the treatment of hepatic encephalopathy” (United States Government as represented by the Department …, priority 2017, dated 2021)
Entries after “also recorded” stand apart in the source; their conditions may differ.

How the values were obtained:
[1] = system: models of Niemann-Pick Type C disease; settings: Davidson et al. 2009; cited from earlier work
[2] = system: AOM-induced acute liver failure; assay: Neurological score and time to coma in the AOM mouse model of acute liver failure / hepatic encephalopathy; type: in vivo, C57Bl/6 mice; settings: ICV infusion started 3 days prior to AOM; for neurological decline (neurological score): AOM-treated mice (100 mg/kg ip), 100 mg/kg; for time taken to reach hepatic coma: AOM-treated mice
Method: (§1) Acute liver failure and HE was induced using the hepatotoxin azoxymethane (AOM) as previously described (McMillian, M. et al. (2016) Am. J. Pathol. 186(2): 312-23; McMillin, M. et al. Front Cell Neurosci. (2017) 11: 191; McMillin, M. et al. (2014) Journal of Hepatology 6(1): 1260-6; McMillin, M. et al. (2016) J. Neuroinflammation 13(1): 198). Briefly, C57Bl/6 or Cyp7A1−/− mice were injected with AOM (100 mg/kg ip) and placed on heating pads set to 37° C. to ensure normothermia. To reduce serum and cortical bile acid levels, C57Bl/6 mice were fed a diet supplemented with 2% cholestyramine (Dyets Inc.; Bethelhem, Pa.), or the control diet AIN-93G, for 3 days prior to the injection of AOM. […] This same approach was used to infuse 2-hydroxypropyl-β-cyclodextrin (2-HβC; 6 mg/kg/day, MilliporeSigma) to inhibit cholesterol accumulation. The infusion cannulas were implanted using the co-ordinates AP −0.34, ML −1.0, DV −2.0. This surgery was performed 3 days prior to the injection of AOM to allow the mice to recover prior to the onset of acute liver failure to minimize mortality.
Starting at 12 hr after injection, mice were monitored at least every 2 hours for body temperature, weight and neurological score as previously described (McMillin, M. et al. Front Cell Neurosci. (2017) 11: 191; McMillin, M. et al. (2016) J. Neuroinflammation 13(1): 198). The neurological score was assessed by an investigator blind to the treatment groups and is a summation of the scores given for the following parameters: pinna reflex, corneal reflex, tail flexion, escape response, righting reflex and gait. Each parameter was assigned a score between 2 (normal) and 0 (absence of reflexes and presence of severe ataxia), and summed to give a neurological score out of 12. At approximately 16 hours after AOM injection, the gait of these experimental mice was further examined using ventral plane imaging technology (DigiGait, Mouse Specifics Inc, Framingham, Mass., USA) which images the underside of animals walking atop a motorized, transparent treadmill belt thereby generating digital paw prints. These paw prints were analyzed using DigiGait Analysis and Imager software (Mouse Specifics Inc, Framingham, Mass., USA) and measures of neuromuscular function were quantified, including the paw angle in fore- and hind limbs (to measure the degree of external rotation), gait symmetry (ratio of forelimb stepping frequency to hindlimb stepping frequency) and the ataxia coefficient for fore and hind limbs (calculated by [maximum stride length−minimum stride length]/average stride length). […]

cholesterol = assay: Measurement of brain cholesterol (total/free kit, Nile Red, Filipin III staining); type: in vivo, C57Bl/6 mice
Method: as §1
Total, free and esterified cholesterol was assessed in brain homogenates using a BioVision Total Cholesterol and Cholesteryl Ester Assay Kit following the instructions from the vendor. The subcellular location of cholesterol was assessed using Nile Red staining (for intracellular cholesterol (Pol, A. et al. (2001) J. Cell Biol. 152(5): 1057-70)) and Filipin III staining (for membrane bound cholesterol (Vanier and Latour (2015) Methods Cell Biol. 126: 357-75)). Briefly, mice were transcardially perfused with ice-cold phosphate buffered saline (PBS), followed by 4% paraformaldehyde (PFA) in PBS. Whole brains were rapidly removed and post-fixed in PFA overnight at 4° C. Brains were cryoprotected in 30% sucrose (in PBS) and embedded in OCT compound. Thirty micrometer sections were cut through the frontal cortex region; sections were rinsed in PBS and further fixed in 4% PFA for 10 minutes at room temperature. Free-floating sections were incubated with Filipin III (0.5 μg/mL in 10% bovine serum albumin/PBS) for 2 hours at room temperature, or with Nile Red (10 μg/mL in PBS) for 30 minutes at room temperature. Sections were washed in PBS, mounted onto microscope slides and imaged using a Bio-Rad Zoe™ Fluorescent Cell Imager (Hercules, Calif.). Field images were quantified for percent-positive area of Nile Red or Filipin III staining using ImageJ software (National Institutes of Health, Bethesda, Md.).

[3] = system: AOM-induced acute liver failure; assay: DigiGait ventral plane gait analysis of AOM-treated mice; type: in vivo, C57Bl/6 mice; settings: approximately 16 hours after AOM injection
Method: as §1
Starting at 12 hr after injection, mice were monitored at least every 2 hours for body temperature, weight and neurological score as previously described (McMillin, M. et al. Front Cell Neurosci. (2017) 11: 191; McMillin, M. et al. (2016) J. Neuroinflammation 13(1): 198). The neurological score was assessed by an investigator blind to the treatment groups and is a summation of the scores given for the following parameters: pinna reflex, corneal reflex, tail flexion, escape response, righting reflex and gait. […] These paw prints were analyzed using DigiGait Analysis and Imager software (Mouse Specifics Inc, Framingham, Mass., USA) and measures of neuromuscular function were quantified, including the paw angle in fore- and hind limbs (to measure the degree of external rotation), gait symmetry (ratio of forelimb stepping frequency to hindlimb stepping frequency) and the ataxia coefficient for fore and hind limbs (calculated by [maximum stride length−minimum stride length]/average stride length).

AOM-induced liver damage = assay: Assessment of liver damage and function (H&E, plasma ALT, AST); type: in vivo, C57Bl/6 mice; settings: 20 hour post-AOM injection; central (ICV) infusion
Method: as §1, with “This surgery was performed 3 days prior to the injection of AOM to allow the mice to recover prior to the onset of acute liver failure to minimize mortality.” left out
Liver damage was assessed by H&E staining according to previously published protocols (McMillin, M. et al. (2017) Front Cell Neurosci. 11: 191). […]
Liver function was assessed by measuring plasma alanine aminotransferase (ALT) and aspartate aminotransferase (AST) using the IDEXX Catalyst One machine from IDEXX Laboratories, Inc (Westbrook, […].).

Cyp46A1 = assay: Expression of Cyp46A1 in primary cortical neuronal culture; type: cell-based, mouse; settings: 10 μM with 10 μM DCA, 24 hr
Text: Primary cortical neurons were isolated and cultured using methodology previously described (McMillin, M. et al. (2014) Journal of hepatology 61(6): 1260-6). Primary neurons were isolated from P1 mouse pups. Mice were decapitated and whole brains were removed. The cortex was isolated and meninges and dura were removed. Cortical tissue was mechanically disrupted and filtered through a 100 μm filter. Neurons were pelleted by centrifugation at 1400 g. Neurons were suspended in media and plated on 12-well plates with 750,000 cells per well. After 24 hours, cells were washed and media was replaced and supplemented with 2% B27 growth supplement. […] At this point, cells were lysed and used for immunoblot or RTPCR analyses.
RNA was extracted from tissue or primary neurons using an RNeasy Mini Kit (Qiagen, Germantown, Md.) according to the manufacturer's instructions. Synthesis of cDNA was accomplished using a Bio-Rad iScript™ cDNA Synthesis Kit. […]
Specific antibodies against Cyp46A1 and β-actin were used. […] Data are expressed as fold change in fluorescent band intensity of target antibody divided by β-actin or GAPDH, which are used as loading controls. […] Band intensity quantifications were performed using ImageJ software.

[4] = system: AOM-induced acute liver failure; settings: mouse model of acute liver failure, McMillin et al. 2016; cited from earlier work
[5] = listed as 2-hydroxypropyl-cyclodextrin
[6] = AOM-treated mice, coma time point, pretreatment from 3 days prior to AOM

For 2-hydroxypropyl-β-cyclodextrin [2-HβC], the “excessive cholesterol buildup in the brain” value [1] is listed as “prevent excessive cholesterol buildup in the brain”, the “neurological decline (neurological score)” value [2] is listed as “significantly delayed the neurological decline; also recorded: reduces neurological decline” and the “neurological decline (neurological score)” value [2, 5] is listed as “dramatically delayed the onset of neurological complications”. For the same compound, the “time taken to reach hepatic coma” value [2] was “increased the time taken to reach hepatic coma”, the “time taken to reach hepatic coma” value [2, 5] was “increased the time it took the mice to reach hepatic coma” and the cortex cholesterol accumulation (cholesterol; AOM-treated mice, FIG. 17 legend) was “reduced”. For the same compound, the “AOM-induced increase in Filipin III staining (membrane-bound cholesterol) in the cortex” value (cholesterol; [6]) was “attenuated the AOM-induced increase”, the “AOM-induced increase in Nile Red staining (intracellular cholesterol) in the cortex” value (cholesterol; [6]) was “attenuated the AOM-induced increase” and the “AOM-induced increase in free cholesterol content in the cortex” value (cholesterol; [6]) was “did prevent the AOM-induced buildup”. The “AOM-induced increase in total cholesterol content in the cortex” value (cholesterol; [6]) was “did prevent the AOM-induced buildup”, the “basal levels of cholesterol in the cortex” value (cholesterol; vehicle-treated mice, infusion into the brain) was “did not decrease” and the “ataxia co-efficient of fore and hind limbs” value [3] was “returned the ataxia co-efficient back to control levels”. For the same compound, the “gait symmetry (ratio of forelimb to hind limb stepping frequency)” value [3] was “returned the gait symmetry to control levels”, the “paw angle of fore and hind limbs (degree of external rotation)” value [3] was “reduced the paw angle of AOM-treated mice to values similar to control” and the “AOM-induced liver damage (H&E staining, ALT, AST)” value (AOM-induced liver damage) was “does not have any hepatoprotective effects; also recorded: does not influence liver function”.
In the case of `C/C=C1\C(=O)C[C@H]2[C@@H]3CCC4=CC(=O)CC[C@]4(C)[C@H]3CC[C@]12C` [guggulsterone, Guggulsterone], the “DCA-induced decrease of Cyp46A1 expression in primary neurons” value (Cyp46A1) is reported as “could be prevented by pre-treatment”.
For `C[C@H](CCC(=O)O)[C@H]1CC[C@H]2[C@@H]3[C@H](O)C[C@@H]4C[C@H](O)CC[C@]4(C)[C@H]3C[C@H](O)[C@]12C` [cholic acid], the “neurological decline associated with acute liver failure (previous studies)” value [4] is given as “worsened the neurological decline”.
